# Experimental data reported in patent publication US11851391B2, “Antifungal compounds and methods of forming the same” (University of Kentucky Research Foundation, priority 2018, dated 2023).
# “Also recorded” adds a separate entry of the source.
# How the values were obtained:
# [1] = tested on: various yeast strains and filamentous fungi (strains A-M); assay: Antifungal activity over the whole panel (summary of MIC data); assay type: cell-based, Candida and Aspergillus strains; conditions: over the fungal strains tested, based on MIC data of Table 1
# Outline: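 Yeasts (A–J) followed CLSI M27-A3 broth microdilution at 2–4×10^3 CFU/mL in RPMI 1640 with DMSO <1.25%. Aspergillus (K–M) followed CLSI M38-A2 with spores at 5×10^5 CFU/mL, 48 h at 35 °C. MIC is the lowest concentration giving complete growth inhibition (MIC-0), tested in triplicate.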
# [2] = tested on: C. albicans ATCC 64124 (strain B); assay: Time-kill assay; assay type: cell-based, Candida albicans
# Source text: To determine the fungistatic or fungicidal nature of the compounds, time-kill assays were next performed over a 24-hour period with 4,4′-bis((E)-1-(2-(4-fluorophenyl)hydrazono)ethyl)-1,1′-biphenyl (17c).
# Time-kill assays were used to assess the inhibitory efficiency of compound 17c against two yeast strains, C. albicans ATCC 10231 (strain A) and C. albicans ATCC 64124 (strain B). The protocol for time-kill assays followed methods previously described with minor modifications. Yeast cultures were grown overnight in YPD medium at 35° C. with shaking at 200 rpm. A working stock of fungal cells was made by diluting cultures in RPMI 1640 medium to an OD600 of 0.125 (˜1×10^6 CFU/mL). From the working stock, 100 μL of cells were added to 4.9 mL of RPMI 1640 medium in sterile culture tubes, making the starting fungal cell concentration […]. Compounds were then added to the fungal cells. […] The treated fungal cultures were incubated at 35° C. with 200 rpm shaking for 24 h. Samples were aliquoted from the different treatments at regular time points (0, 3, 6, 9, 12, and 24 h) and plated in duplicate. For each time point, cultures were vortexed, 100 μL of culture were aspirated, and 10-fold serial dilutions were made in sterile ddH2O. From the appropriate dilutions, 100 μL of fungal suspension was spread onto PDA plates and incubated at 35° C. for 48 h before colony were counted. At 24 h, 50 μL of 1 mM resazurin in PBS was added to the treatments and incubated at 35° C. with 200 rpm shaking for 2 h in the dark for visual inspection (FIGS. 5A-D). Experiments were performed in duplicate.
# [3] = tested on: C. albicans ATCC 64124 (strain B) biofilms; assay: Biofilm disruption assay (XTT reduction); assay type: cell-based, Candida albicans
# Description: (§1) Biofilms are complex communities of one or more species of microorganisms encased in extracellular polymeric substances and attached to not only a solid surface but also to each other. Because of their complex, matrix-like nature, antifungal agents are often unable to reach the pathogens embedded in these networks. […] This increase reflected some resistance of Candida biofilms against the bishydrazone 17c.
# (§2) Biofilm disruption assays were performed to assess the effectiveness of compound 17c against sessile yeast cells for two representative yeast strains, C. albicans ATCC 10231 (strain A) and C. albicans ATCC 64124 (strain B). VOR was used as a positive control. Biofilm assays were performed in 96-well plates using XTT [2,3-bis(2-methoxy-4-nitro-5-sulfophenyl)-2H-tetrazolium-5-carboxanilide] to measure the viability of the biofilm as previously described. An overnight culture of the yeast cells was grown at 35° C. in YPD medium with shaking at 200 rpm. The overnight culture was diluted in RPMI 1640 medium to an OD600 between 0.12 and 0.15 to make a working stock. The working stock was transferred to 96-well plates in 100 μL aliquots, leaving one column empty for the sterile controls. […] 80 μL of liquid from each well was transferred to new plates, which were then read for absorbance at 450 nm with a SpectraMax M5 plate reader (Molecular Devices, Sunnyvale, CA, USA). […]
# [4] = tested on: C. albicans ATCC 10231 (strain A) biofilms; assay: Biofilm disruption assay (XTT reduction); assay type: cell-based, Candida albicans
# Description: as §1, §2
compound,measurement,setting,value
COc1ccc(N/N=C/c2ccc(-c3ccc(/C=N/Nc4ccc(OC)cc4)cc3)cc2)cc1 [Compound 15b],antifungal activity (in words),[1],good activity against the majority of the fungal strains tested
Fc1ccc(N/N=C/c2ccc(-c3cccc(/C=N/Nc4ccc(F)cc4F)c3)cc2)c(F)c1 [Compound 20a],antifungal activity (in words),[1],overall antifungal activity against all the strains tested; also recorded: good activity against the majority of the fungal strains tested
Fc1ccc(N/N=C/c2ccc(-c3cccc(/C=N/Nc4ccc(F)cc4)c3)cc2)cc1 [Compound 17a],antifungal activity (in words),[1],good activity against the majority of the fungal strains tested
Fc1cccc(N/N=C/c2ccc(-c3cccc(/C=N/Nc4cccc(F)c4)c3)cc2)c1 [Compound 12a],antifungal activity (in words),[1],good activity
"C/C(=N\Nc1ccc(F)cc1)c1ccc(-c2ccc(/C(C)=N/Nc3ccc(F)cc3)cc2)cc1 [Compound 17c, 4,4′-bis((E)-1-(2-(4-fluorophenyl)hydrazono)ethyl)-1,1′-biphenyl]",reduction in fungal growth compared with VOR,[2]; 17c at equal to or one-half of the MIC value versus VOR at the MIC value,greater reduction in fungal growth
same,fungistatic or fungicidal nature,"[2]; 24-hour period, up to twice its MIC value",fungistatic; also recorded: more fungistatic than the control drug VOR
same,increase of SMIC values compared to planktonic MIC value,[3],4- to 8 fold
same,increase of SMIC values compared to planktonic MIC value,[4],4- to 16 fold
